Some results are limits rather than exact numbers.

Experiment [1] has as its target Epidermal growth factor receptor (Homo sapiens, UniProt P00533).
Description: Inhibition of EGFR intracellular phosphorylation in human A431 cells by ELISA
Experiment [2] addresses T1, Receptor tyrosine-protein kinase erbB-2 (Homo sapiens, UniProt P04626). Briefly: Inhibition of ErbB2 by time resolved fluorescence assay.
The target in experiment [3] is T2, Insulin-like growth factor 1 receptor (Homo sapiens, UniProt P08069). The experiment can be described thus: Inhibition of human recombinant IGF1R expressed in Sf21 cells by time resolved fluorescence assay.
T2 sequence (P08069 31-736 limits assumed): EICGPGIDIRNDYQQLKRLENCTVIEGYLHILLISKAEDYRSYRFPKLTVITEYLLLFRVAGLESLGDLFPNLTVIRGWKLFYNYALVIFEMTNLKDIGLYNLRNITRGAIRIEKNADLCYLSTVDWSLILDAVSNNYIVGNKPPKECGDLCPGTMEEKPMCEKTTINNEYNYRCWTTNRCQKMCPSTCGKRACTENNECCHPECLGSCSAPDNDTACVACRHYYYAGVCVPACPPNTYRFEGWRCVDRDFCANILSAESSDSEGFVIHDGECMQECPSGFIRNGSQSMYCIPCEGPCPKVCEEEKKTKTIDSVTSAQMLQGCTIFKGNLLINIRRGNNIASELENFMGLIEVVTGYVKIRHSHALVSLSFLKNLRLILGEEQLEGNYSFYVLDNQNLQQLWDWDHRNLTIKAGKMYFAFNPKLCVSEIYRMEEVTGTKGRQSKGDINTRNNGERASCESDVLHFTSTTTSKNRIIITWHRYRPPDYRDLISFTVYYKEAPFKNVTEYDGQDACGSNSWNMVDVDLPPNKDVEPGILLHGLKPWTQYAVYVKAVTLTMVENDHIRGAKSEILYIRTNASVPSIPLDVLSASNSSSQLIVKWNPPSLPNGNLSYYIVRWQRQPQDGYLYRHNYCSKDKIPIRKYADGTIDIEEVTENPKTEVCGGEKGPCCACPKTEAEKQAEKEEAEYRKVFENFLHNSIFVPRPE
T2 sequence (P08069 741-1367 limits assumed): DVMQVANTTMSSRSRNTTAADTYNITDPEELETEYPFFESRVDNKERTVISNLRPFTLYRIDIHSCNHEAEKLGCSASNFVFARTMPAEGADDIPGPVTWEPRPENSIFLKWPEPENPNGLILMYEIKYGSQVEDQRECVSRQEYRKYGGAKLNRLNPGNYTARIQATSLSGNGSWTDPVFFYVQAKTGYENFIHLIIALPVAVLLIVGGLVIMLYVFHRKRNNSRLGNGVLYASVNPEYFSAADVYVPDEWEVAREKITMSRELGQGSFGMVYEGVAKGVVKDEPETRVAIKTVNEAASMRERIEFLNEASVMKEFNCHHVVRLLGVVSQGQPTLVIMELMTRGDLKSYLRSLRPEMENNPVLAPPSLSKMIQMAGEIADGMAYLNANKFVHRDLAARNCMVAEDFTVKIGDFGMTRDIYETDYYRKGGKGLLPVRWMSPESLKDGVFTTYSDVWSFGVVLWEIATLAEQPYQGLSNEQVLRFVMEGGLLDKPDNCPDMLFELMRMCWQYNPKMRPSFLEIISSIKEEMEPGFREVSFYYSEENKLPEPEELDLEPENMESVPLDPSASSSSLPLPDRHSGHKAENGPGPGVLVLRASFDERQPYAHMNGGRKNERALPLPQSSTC
In experiment [4] the target is T1, Receptor tyrosine-protein kinase erbB-2. The experiment can be described thus: Inhibition of ErbB2 intracellular phosphorylation in human N87 cells by ELISA. On the technique in general: An ELISA detects its analyte on a solid surface through an enzyme-linked reagent.
For experiment [5], the target named is Epidermal growth factor receptor (Homo sapiens, UniProt P00533, L858R).
Sequence of Epidermal growth factor receptor (Homo sapiens, UniProt P00533, L858R) (P00533 25-1210 L858R limits assumed): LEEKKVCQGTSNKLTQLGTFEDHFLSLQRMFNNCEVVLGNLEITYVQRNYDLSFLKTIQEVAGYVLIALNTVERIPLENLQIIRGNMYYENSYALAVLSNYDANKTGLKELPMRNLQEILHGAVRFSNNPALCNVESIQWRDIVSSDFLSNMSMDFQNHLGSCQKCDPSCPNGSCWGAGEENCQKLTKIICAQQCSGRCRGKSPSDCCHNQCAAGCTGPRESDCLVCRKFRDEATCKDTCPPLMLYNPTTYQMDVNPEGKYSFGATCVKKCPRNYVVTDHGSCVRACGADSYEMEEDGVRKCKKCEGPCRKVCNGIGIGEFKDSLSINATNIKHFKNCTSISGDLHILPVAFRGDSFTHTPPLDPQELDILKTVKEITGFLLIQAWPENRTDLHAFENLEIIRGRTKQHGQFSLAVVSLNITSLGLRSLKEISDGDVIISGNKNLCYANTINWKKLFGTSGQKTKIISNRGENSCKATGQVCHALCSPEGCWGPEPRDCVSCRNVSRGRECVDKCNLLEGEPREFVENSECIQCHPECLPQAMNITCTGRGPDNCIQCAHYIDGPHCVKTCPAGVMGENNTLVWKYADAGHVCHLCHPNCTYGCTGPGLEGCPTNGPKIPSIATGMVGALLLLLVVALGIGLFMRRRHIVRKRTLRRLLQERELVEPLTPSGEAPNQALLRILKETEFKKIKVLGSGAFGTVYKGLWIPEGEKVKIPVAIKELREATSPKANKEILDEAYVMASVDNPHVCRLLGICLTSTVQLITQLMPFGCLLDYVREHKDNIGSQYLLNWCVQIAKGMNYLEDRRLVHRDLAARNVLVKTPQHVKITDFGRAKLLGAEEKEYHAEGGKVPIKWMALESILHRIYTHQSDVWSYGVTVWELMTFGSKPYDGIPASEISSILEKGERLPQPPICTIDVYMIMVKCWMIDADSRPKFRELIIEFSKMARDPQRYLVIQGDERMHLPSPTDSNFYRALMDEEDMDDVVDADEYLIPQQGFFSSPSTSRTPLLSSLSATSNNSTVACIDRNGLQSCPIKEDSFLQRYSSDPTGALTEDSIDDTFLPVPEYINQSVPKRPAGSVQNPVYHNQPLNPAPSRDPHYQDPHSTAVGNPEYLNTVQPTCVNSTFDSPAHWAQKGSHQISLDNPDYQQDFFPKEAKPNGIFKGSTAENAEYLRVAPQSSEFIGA
For experiment [6], the target named is T2, Insulin-like growth factor 1 receptor. The experiment can be described thus: Inhibition of IGF1R intracellular phosphorylation in human A431 cells by ELISA. Type of experiment: cell-based, A-431.
A short description of experiment [7]: Inhibition of P70S6K.
A short description of experiment [8]: Inhibition of CK2.
Experiment [9] is described as follows: Inhibition of PKA.
Experiment [10] can be described thus: Inhibition of FGFR.
Experiment [11] can be described thus: Inhibition of MAPKAPK.
The target in experiment [12] is T3, Serine/threonine-protein kinase Sgk1 (Homo sapiens, UniProt O00141).
T3 sequence (O00141 whole entry): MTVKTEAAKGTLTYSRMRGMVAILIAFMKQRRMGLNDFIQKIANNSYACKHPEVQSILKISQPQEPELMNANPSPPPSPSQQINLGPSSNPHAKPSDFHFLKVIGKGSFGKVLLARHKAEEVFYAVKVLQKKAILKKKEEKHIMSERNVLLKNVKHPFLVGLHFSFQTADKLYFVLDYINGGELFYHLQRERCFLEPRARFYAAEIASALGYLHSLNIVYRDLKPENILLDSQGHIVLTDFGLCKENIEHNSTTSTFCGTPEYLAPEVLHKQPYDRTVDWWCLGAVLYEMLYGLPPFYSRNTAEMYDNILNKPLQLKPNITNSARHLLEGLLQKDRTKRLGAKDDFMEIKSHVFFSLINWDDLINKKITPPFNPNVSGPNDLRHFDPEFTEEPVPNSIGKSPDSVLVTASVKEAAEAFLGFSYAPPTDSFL
The experiment can be described thus: Inhibition of SGK.

Experiment [13] concerns the target Protein kinase C eta type (Homo sapiens, UniProt P24723). Briefly: Inhibition of PKCeta.

Sequence of Epidermal growth factor receptor (Homo sapiens, UniProt P00533) (P00533 whole entry): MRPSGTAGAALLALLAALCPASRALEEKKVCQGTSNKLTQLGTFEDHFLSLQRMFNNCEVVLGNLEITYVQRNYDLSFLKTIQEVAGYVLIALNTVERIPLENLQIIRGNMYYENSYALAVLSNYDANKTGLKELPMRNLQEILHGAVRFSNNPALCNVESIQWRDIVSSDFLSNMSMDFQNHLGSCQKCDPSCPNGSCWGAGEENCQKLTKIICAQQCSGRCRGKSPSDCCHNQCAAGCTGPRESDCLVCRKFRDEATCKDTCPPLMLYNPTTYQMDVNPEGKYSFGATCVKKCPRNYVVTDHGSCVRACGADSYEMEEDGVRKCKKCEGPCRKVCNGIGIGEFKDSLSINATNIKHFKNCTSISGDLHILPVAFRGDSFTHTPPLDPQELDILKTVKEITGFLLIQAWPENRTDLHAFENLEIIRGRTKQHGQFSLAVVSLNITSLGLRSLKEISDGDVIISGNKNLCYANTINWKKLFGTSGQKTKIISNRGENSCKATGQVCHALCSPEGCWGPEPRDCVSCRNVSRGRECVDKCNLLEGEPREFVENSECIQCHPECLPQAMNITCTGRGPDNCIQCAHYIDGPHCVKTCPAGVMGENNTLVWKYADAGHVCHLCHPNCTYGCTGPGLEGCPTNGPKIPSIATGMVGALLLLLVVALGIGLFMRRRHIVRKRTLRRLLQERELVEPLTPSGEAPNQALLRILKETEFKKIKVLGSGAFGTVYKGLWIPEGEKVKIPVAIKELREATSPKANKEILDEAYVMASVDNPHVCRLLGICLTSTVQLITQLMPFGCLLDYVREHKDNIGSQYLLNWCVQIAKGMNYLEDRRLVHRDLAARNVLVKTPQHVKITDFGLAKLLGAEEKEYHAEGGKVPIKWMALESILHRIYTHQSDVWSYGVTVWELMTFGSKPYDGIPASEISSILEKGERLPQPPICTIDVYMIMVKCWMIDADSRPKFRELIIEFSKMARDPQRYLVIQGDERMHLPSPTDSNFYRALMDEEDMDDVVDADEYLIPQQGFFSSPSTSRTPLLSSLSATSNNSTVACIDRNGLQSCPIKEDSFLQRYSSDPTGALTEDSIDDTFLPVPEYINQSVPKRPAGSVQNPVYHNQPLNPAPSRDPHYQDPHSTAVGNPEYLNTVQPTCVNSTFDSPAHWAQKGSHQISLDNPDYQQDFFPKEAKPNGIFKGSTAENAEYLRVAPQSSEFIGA
T1 sequence (P04626 whole entry): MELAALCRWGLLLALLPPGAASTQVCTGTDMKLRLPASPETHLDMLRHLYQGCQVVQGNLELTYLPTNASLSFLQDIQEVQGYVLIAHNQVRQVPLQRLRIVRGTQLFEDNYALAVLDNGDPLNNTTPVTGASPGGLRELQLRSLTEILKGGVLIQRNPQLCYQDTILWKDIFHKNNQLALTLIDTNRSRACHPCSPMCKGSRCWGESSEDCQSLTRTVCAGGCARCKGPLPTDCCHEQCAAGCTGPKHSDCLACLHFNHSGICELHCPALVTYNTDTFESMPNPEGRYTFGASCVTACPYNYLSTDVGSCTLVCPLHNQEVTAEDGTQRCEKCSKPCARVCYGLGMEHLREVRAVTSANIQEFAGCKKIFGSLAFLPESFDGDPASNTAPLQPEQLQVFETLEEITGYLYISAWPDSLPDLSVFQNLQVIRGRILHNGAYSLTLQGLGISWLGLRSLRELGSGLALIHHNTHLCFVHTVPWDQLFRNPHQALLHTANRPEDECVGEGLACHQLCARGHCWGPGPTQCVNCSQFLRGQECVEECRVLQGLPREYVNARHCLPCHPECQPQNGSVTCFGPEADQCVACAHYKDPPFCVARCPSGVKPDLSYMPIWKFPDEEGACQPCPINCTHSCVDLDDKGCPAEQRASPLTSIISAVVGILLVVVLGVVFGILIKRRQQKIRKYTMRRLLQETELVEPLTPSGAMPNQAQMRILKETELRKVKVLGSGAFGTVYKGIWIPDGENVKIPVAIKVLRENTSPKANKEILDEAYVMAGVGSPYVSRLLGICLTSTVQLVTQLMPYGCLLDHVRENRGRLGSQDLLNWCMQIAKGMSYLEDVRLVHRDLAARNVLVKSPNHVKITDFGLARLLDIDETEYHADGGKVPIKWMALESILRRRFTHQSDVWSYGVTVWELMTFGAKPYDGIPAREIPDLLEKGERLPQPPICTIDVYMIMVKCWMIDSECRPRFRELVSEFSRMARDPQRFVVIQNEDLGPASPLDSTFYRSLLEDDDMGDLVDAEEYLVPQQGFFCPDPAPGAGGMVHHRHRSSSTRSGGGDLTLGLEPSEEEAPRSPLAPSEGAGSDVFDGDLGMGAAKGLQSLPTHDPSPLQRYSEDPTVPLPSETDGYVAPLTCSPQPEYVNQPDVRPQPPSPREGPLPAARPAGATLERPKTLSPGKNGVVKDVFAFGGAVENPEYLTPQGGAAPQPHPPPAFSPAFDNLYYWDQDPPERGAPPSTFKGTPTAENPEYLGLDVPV

What is called IC50 is the midpoint of a concentration-inhibition curve. With `O=C(Cc1ccccc1)Nc1cccc(-c2nc3sccn3c2-c2ccnc(Nc3ccc4c(c3)CCNC4)n2)c1`, the IC50 in [1] amounted to 1000 nM; in experiment [2] it was 55 nM; in [3] it was 27 nM; in [4] it was 120 nM; in [5] it was 6.4 nM; in experiment [6], 180 nM.

For `O=C(Nc1cccc(-c2nc3sccn3c2-c2ccnc(Nc3ccc4c(c3)CCNC4)n2)c1)c1c(F)cccc1F`, the IC50 came out at 7.2 nM in experiment [2], 100 nM in [3] and 2.3 nM in experiment [5].

Regarding `O=C(Nc1cccc(-c2nc3sccn3c2-c2ccnc(Nc3ccccc3)n2)c1)c1ccccc1Cl`, the IC50 in experiment [2] is 35 nM; in experiment [3] it was more than 12500 nM; in [5], 83 nM.

`CN(C)CCc1cccc(Nc2nccc(-c3c(-c4cccc(NC(=O)Cc5ccccc5)c4)nc4sccn34)n2)c1`: the IC50 came to 150 nM in [2] and 24 nM in experiment [5].

Consider `O=C(Nc1cccc(-c2nc3sccn3c2-c2ccncc2)c1)c1ccccc1Cl`, for which the IC50 is 240 nM in experiment [2], more than 12500 nM in experiment [3] and 240 nM in experiment [5].

With `O=C(Nc1ccccc1)Nc1cccc(-c2nc3sccn3c2-c2ccnc(Nc3ccc(N4CCOCC4)cc3)n2)c1`, the results for the half-maximal inhibitory concentration (IC50) in experiment [2], in [3] and in experiment [5] were 170 nM, 590 nM and 100 nM, respectively.

On to `O=C(Nc1cccc(-c2nc3sccn3c2-c2ccnc(Nc3cccc(N4CCOCC4)c3)n2)c1)c1c(F)cccc1F`, for which the half-maximal inhibitory concentration (IC50) in experiment [2] was 86 nM; in [3], 3800 nM; in [5] it was 6.2 nM.

`O=C(Nc1cccc(-c2nc3sccn3c2-c2ccnc(Nc3ccc(N4CCOCC4)cc3)n2)c1)c1c(F)cccc1F`: the IC50 was 86 nM in experiment [2], 1300 nM in [3] and 1.9 nM in experiment [5].

For `CCN1CCN(c2ccc(Nc3nccc(-c4c(-c5cccc(NC(=O)Cc6ccccc6)c5)nc5sccn45)n3)cc2)CC1`, the IC50 came out at 170 nM in experiment [2], 52 nM in experiment [3], 310 nM in [4] and 41 nM in experiment [6].

Turning to `O=C(Cc1ccccc1)Nc1cccc(-c2nc3sccn3c2-c2ccnc(Nc3cccc(N4CCOCC4)c3)n2)c1`, the IC50 is more than 1000 nM in experiment [7]; more than 1000 nM in experiment [8]; more than 1000 nM in experiment [9]; 890 nM in [10]; more than 1000 nM in [11]; more than 1000 nM in experiment [12]. In [13], this compound showed an IC50 of more than 1000 nM.

Turning to `O=C(Nc1cccc(-c2nc3sccn3c2-c2ccnc(Nc3ccccc3)n2)c1)c1ccccc1`, the IC50 in [2] is 6.3 nM; in experiment [3], more than 12500 nM; in [5], 55 nM.

Take `CN(C)CCc1ccc(Nc2nccc(-c3c(-c4cccc(NC(=O)c5c(F)cccc5F)c4)nc4sccn34)n2)cc1`: the IC50 was found to be 220 nM in [1]; 4.3 nM in experiment [2]; 210 nM in experiment [3]; 27 nM in [4]; 0.78 nM in experiment [5]; 330 nM in experiment [6].

As for `CN1CCc2cc(Nc3nccc(-c4c(-c5cccc(NC(=O)Cc6ccccc6)c5)nc5sccn45)n3)ccc2C1`, the values for the IC50 in experiment [2], in experiment [3] and in [5] were 160 nM, 81 nM and 57 nM, respectively.

Regarding `O=C(CC1CCCCC1)Nc1cccc(-c2nc3sccn3c2-c2ccnc(Nc3ccc(N4CCOCC4)cc3)n2)c1`, the IC50 was determined as 1400 nM in [2], 1100 nM in experiment [3] and 870 nM in experiment [5].

For the compound `O=C(CC1CCCC1)Nc1cccc(-c2nc3sccn3c2-c2ccnc(Nc3ccc(N4CCOCC4)cc3)n2)c1`, the IC50 is 1300 nM in experiment [2], 580 nM in [3] and 660 nM in experiment [5].

Take `O=C(Nc1cccc(-c2nc3sccn3c2-c2ccnc(Nc3ccc(N4CCOCC4)cc3)n2)c1)c1ccccc1`: the IC50 in [2] is 4.8 nM; in experiment [3] it was 1500 nM; in experiment [5], 7.9 nM.

Turning to `O=C(Nc1cccc(-c2nc3sccn3c2-c2ccnc(Nc3ccc(N4CCOCC4)cc3)n2)c1)Oc1ccccc1`, the IC50 in experiment [2] is 170 nM; in experiment [3], 450 nM; in experiment [5] it was 190 nM.

For the compound `Nc1nc2ccc(-c3c(-c4cccc(NC(=O)c5ccccc5Cl)c4)nc4sccn34)cc2[nH]1`, the IC50 in experiment [2], in experiment [3] and in experiment [5] was more than 12500 nM throughout.

Turning to `O=[N+]([O-])c1cccc(-c2nc3sccn3c2-c2ccnc(Nc3ccccc3)n2)c1`, the results for the IC50 in experiment [2] and in [3] were 6000 nM and more than 12500 nM, respectively.

For the compound `CCN1CCN(c2ccc(Nc3nccc(-c4c(-c5cccc(NC(=O)c6c(F)cccc6F)c5)nc5sccn45)n3)cc2)CC1`, the IC50 in experiment [1] was 50 nM; in experiment [2], 14 nM; in [3], 230 nM; in [4] it was 69 nM; in experiment [5], 0.96 nM; in [6], 200 nM.

For the origin of these results see ChEMBL document CHEMBL1156213, “Imidazo[2,1-b]thiazoles: multitargeted inhibitors of both the insulin-like growth factor receptor and members of the epidermal growth factor family of receptor tyrosine kinases” (Bioorg Med Chem Lett, 2010).
